Laboratory results as given in PubChem BioAssay (NCI).
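Compound exposure: 48 hours, 5 concentrations, 96-well plates. GI50 marks 50% less growth. The concentration for full growth arrest is given as TGI.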

Columns and labels:
Assay in all cases: growth of human tumour cells (NCI), 48 h
[1] = system: MOLT-4 leukemia
[2] = system: SF-295 CNS
[3] = system: LOX IMVI melanoma
[4] = system: SNB-19 CNS
[5] = system: PC-3 prostate
[6] = system: OVCAR-5 ovarian
[7] = system: MDA-MB-468 breast
[8] = system: SK-MEL-2 melanoma
[9] = system: HOP-92 NSCLC
[10] = system: MCF7 breast
[11] = system: EKVX NSCLC
[12] = system: K-562 leukemia
[13] = system: NCI-H460 lung
[14] = system: SK-MEL-28 melanoma
[15] = system: CAKI-1 renal
[16] = system: 786-0 renal
[17] = system: COLO 205 colon
[18] = system: HCC-2998 colon
[19] = system: MDA-MB-435
[20] = system: NCI-H522 lung
[21] = system: A498 renal
[22] = system: TK-10 renal
[23] = system: OVCAR-3 ovarian
[24] = system: HT29 colon
[25] = system: RPMI-8226 leukemia
[26] = system: HOP-62 NSCLC
[27] = system: SF-539 CNS
[28] = system: SN12C renal
[29] = system: KM12 colon
[30] = system: SW-620 colon
[31] = system: U251 CNS
[32] = system: MDA-MB-231 breast
[33] = system: NCI-H226 lung
[34] = system: SK-OV-3 ovarian
[35] = system: ACHN renal
[36] = system: RXF 393 renal
[37] = system: HS 578T breast
[38] = system: DU-145 prostate
[39] = system: MALME-3M melanoma
[40] = system: SF-268 CNS
[41] = system: CCRF-CEM leukemia
[42] = system: OVCAR-4 ovarian
[43] = system: M14 melanoma
[44] = system: UACC-62 melanoma
[45] = system: UACC-257 melanoma
[46] = system: SNB-75 CNS
[47] = system: HCT-116 colon
[48] = system: IGROV1 ovarian
[49] = system: UO-31 renal
[50] = system: HL-60(TB) leukemia
[51] = system: HCT-15 colon
[52] = system: NCI/ADR-RES ovarian
[53] = system: BT-549 breast
[54] = system: SR leukemia
[55] = system: OVCAR-8 ovarian
[56] = system: SK-MEL-5 melanoma
[57] = system: T-47D breast
[58] = system: A549 NSCLC
[59] = system: NCI-H23 lung

Question: What does the source list for `CC(=O)Nc1ccc(-c2cn(-c3cccc(C(=O)Nc4ccc(F)c(C(F)(F)F)c4)c3)nn2)cn1`?
Answer: GI50 [1]: 20.2 µM; TGI [1]: 61.1 µM; GI50 [2]: 14.6 µM; TGI [2]: 28.2 µM; GI50 [3]: 13.8 µM; TGI [3]: 26.7 µM; GI50 [4]: 19.5 µM; TGI [4]: 34.9 µM; GI50 [5]: 16 µM; TGI [5]: 38.1 µM; GI50 [6]: 17.7 µM; TGI [6]: 35 µM; GI50 [7]: 14.8 µM; TGI [7]: 29 µM; GI50 [8]: 16.6 µM; TGI [8]: 34.4 µM; GI50 [9]: 15.8 µM; TGI [9]: 35.1 µM; GI50 [10]: 16 µM; TGI [10]: 34.3 µM; GI50 [11]: 18.1 µM; TGI [11]: 34 µM; GI50 [12]: 4.13 µM; TGI [12]: 24.6 µM; GI50 [13]: 16.8 µM; TGI [13]: 32.2 µM; GI50 [14]: 14.6 µM; TGI [14]: 28 µM; GI50 [15]: 17.3 µM; TGI [15]: 32.7 µM; GI50 [16]: 2.6 µM; TGI [16]: 11.1 µM; GI50 [17]: 18.3 µM; TGI [17]: 41.3 µM; GI50 [18]: 16.9 µM; TGI [18]: 32.6 µM; GI50 [19]: 16.8 µM; TGI [19]: 32.9 µM; GI50 [20]: 17.7 µM; TGI [20]: 38.1 µM; GI50 [21]: 26.6 µM; TGI [21]: 43.4 µM; GI50 [22]: 23.7 µM; TGI [22]: 41.1 µM; GI50 [23]: 21.2 µM; TGI [23]: 41.4 µM; GI50 [24]: 16.3 µM; TGI [24]: 33.6 µM; GI50 [25]: 24.3 µM; TGI [25]: 66.2 µM; GI50 [26]: 21.2 µM; TGI [26]: 44.6 µM; GI50 [27]: 15.1 µM; TGI [27]: 28.5 µM; GI50 [28]: 16.1 µM; TGI [28]: 30.4 µM; GI50 [29]: 6.64 µM; TGI [29]: 53.5 µM; GI50 [30]: 17.1 µM; TGI [30]: 33.8 µM; GI50 [31]: 23.5 µM; TGI [31]: 57.7 µM; GI50 [32]: 11.2 µM; TGI [32]: 24.1 µM; GI50 [33]: 18.4 µM; TGI [33]: 36.3 µM; GI50 [34]: 20.7 µM; TGI [34]: 45.4 µM; GI50 [35]: 15.7 µM; TGI [35]: 30.1 µM; GI50 [36]: 14.5 µM; TGI [36]: 31.6 µM; GI50 [37]: 17.4 µM; TGI [37]: 66.7 µM; GI50 [38]: 27 µM; TGI [38]: 79.3 µM; GI50 [39]: 9.6 µM; TGI [39]: 21.8 µM; GI50 [40]: 26.5 µM; TGI [40]: 63.4 µM; GI50 [41]: 22.2 µM; TGI [41]: 71.5 µM; GI50 [42]: 20.3 µM; TGI [42]: 40.9 µM; GI50 [43]: 15 µM; TGI [43]: 41.3 µM; GI50 [44]: 14.2 µM; TGI [44]: 27.6 µM; GI50 [45]: 17.6 µM; TGI [45]: 38.6 µM; GI50 [46]: 13.8 µM; TGI [46]: 35.7 µM; GI50 [47]: 1.47 µM; TGI [47]: 18.2 µM; GI50 [48]: 16.5 µM; TGI [48]: 30.9 µM; GI50 [49]: 15.4 µM; TGI [49]: 29.6 µM; GI50 [50]: 6.57 µM; TGI [50]: > 100 µM; GI50 [51]: 17.2 µM; TGI [51]: 33.4 µM; GI50 [52]: 27.5 µM; TGI [52]: 89.1 µM; GI50 [53]: 13.2 µM; TGI [53]: 30.9 µM; GI50 [54]: 31 µM; TGI [54]: > 100 µM; GI50 [55]: 28 µM; TGI [55]: 89.8 µM; GI50 [56]: 17.2 µM; TGI [56]: 34 µM; GI50 [57]: 22.9 µM; TGI [57]: 66.4 µM; GI50 [58]: 25.2 µM; TGI [58]: 68.5 µM; GI50 [59]: 14.8 µM; TGI [59]: 28.8 µM
